# Assay results reported in patent publication US7902354B2, “Lapachone compounds and methods of use thereof” (ArQule, Inc., priority 2006, dated 2011).
# Key:
# Format in all cases: cell-based
# [1] = system: K-562 human leukemia cells; test: MTS cell viability assay, K-562 human leukemia cells; conditions: K562, K-562, 4 h compound incubation, MTS, read-out: IC50 Values, Cancerous Cells, Leukemia K-562
# [2] = system: PACA-2 human pancreatic carcinoma cells; test: MTS cell viability assay, PACA-2 human pancreatic carcinoma cells; conditions: PACA-2, 4 h compound incubation, MTS, read-out: IC50 Values, Cancerous Cells, Pancreas PACA-2
# [3] = system: DU-145 human prostate carcinoma cells; test: MTS cell viability assay, DU-145 human prostate carcinoma cells; conditions: DU-145, 4 h compound incubation, MTS, read-out: IC50 Values, Cancerous Cells, Prostate DU-145
# [4] = system: DLD-1 human colon carcinoma cells; test: MTS cell viability assay, DLD-1 human colon carcinoma cells; conditions: DLD-1, 4 h compound incubation, MTS, read-out: IC50 Values, Cancerous Cells, Colon DLD-1
# [5] = system: NCM-460 normal colon epithelial cells; test: MTS cell viability assay, NCM-460 normal colon epithelial cells; conditions: for IC50: Homo sapiens, NCM460, NCM-460, 4 h compound incubation, MTS, read-out: IC50 Values, Normal Cells, Colon NCM-460; for Fold Selectivity (NCM-460/DLD1): ratio of IC50 NCM-460 / DLD1
# [6] = system: A549 human lung carcinoma cells; test: MTS cell viability assay, A549 human lung carcinoma cells; conditions: A549, 4 h compound incubation, MTS, read-out: IC50 Values, Cancerous Cells, Lung A549
Structure (SMILES),IC50 [1],IC50 [2],IC50 [3],IC50 [4],IC50 [5],Fold Selectivity (NCM-460/DLD1) [5],IC50 [6]
"Cc1nn(C)c(Cl)c1S(=O)(=O)N1CCC2(CC1)CSC1=C(O2)c2ccccc2C(=O)C1=O [Compound 81, 1′-[(5-chloro-1,3-dimethyl-1H-pyrazol-4-yl)sulfonyl]spiro[naphtho[1,2-b][1,4]oxathiine-2,4′-piperidine]-5,6-dione]",12.3 µM,12.1 µM,13.7 µM,12.3 µM,30.2 µM,2.5,> 100 µM
"O=C1C(=O)c2ccccc2C2=C1SCC1(CCN(CC(O)COc3ccccc3)CC1)O2 (stereo not drawn) [Compound 158, 1′-(2-hydroxy-3-phenoxypropyl)spiro[naphtho[1,2-b][1,4]oxathiine-2,4′-piperidine]-5,6-dione]",1.44 µM,1.32 µM,1.71 µM,1.48 µM,4.91 µM,3.3,5.6 µM
"O=C1C(=O)c2ccccc2C2=C1SCC1(CCN(S(=O)(=O)c3cccs3)CC1)O2 [Compound 78, 1′-(2-thienylsulfonyl)spiro[naphtho[1,2-b][1,4]oxathiine-2,4′-piperidine]-5,6-dione]",14.7 µM,11.1 µM,12.7 µM,11.1 µM,30 µM,2.7,46.7 µM
"O=C1C(=O)c2ccc(F)cc2C2=C1SCC1(CCN(C(=O)Oc3cccc(C(F)(F)F)c3)CC1)O2 [Compound 100, 3-(trifluoromethyl)phenyl 9-fluoro-5,6-dioxo-5,6-dihydro-1′H-spiro[naphtho[1,2-b][1,4]oxathiine-2,4′-piperidine]-1′-carboxylate]",1.37 µM,1.32 µM,1.39 µM,1.13 µM,5.67 µM,5.0,8 µM
"O=C1C(=O)c2ccccc2C2=C1SCC1(CCN(Cc3ccccc3)CC1)O2 [Compound 130, 1′-benzylspiro[naphtho[1,2-b][1,4]oxathiine-2,4′-piperidine]-5,6-dione]",3.84 µM,2.74 µM,4.58 µM,1.57 µM,10.2 µM,6.5,7.4 µM
"CCCCC(O)CN1CCC2(CC1)CSC1=C(O2)c2ccccc2C(=O)C1=O (stereo not drawn) [Compound 162, 1′-(2-hydroxyhexyl)spiro[naphtho[2-b][1,4]oxathiine-2,4′-piperidine]-5,6-dione]",1.5 µM,1.45 µM,2.77 µM,1.36 µM,2.8 µM,2.1,6.95 µM
"COc1ccc(OCC(O)CN2CCC3(CC2)CSC2=C(O3)c3ccccc3C(=O)C2=O)cc1 (stereo not drawn) [Compound 175, 1′-[2-hydroxy-3-(4-methoxyphenoxy)propyl]spiro[naphtho[1,2-b][1,4]oxathiine-2,4′-piperidine]-5,6-dione]",3.27 µM,1.39 µM,1.59 µM,1.42 µM,6.12 µM,4.3,7.29 µM
"Cc1nn(C)c(C)c1S(=O)(=O)N1CCC2(CC1)CSC1=C(O2)c2ccccc2C(=O)C1=O [Compound 80, 1′-[(1,3,5-trimethyl-1H-pyrazol-4-yl)sulfonyl]spiro[naphtho[1,2-b][1,4]oxathiine-2,4′-piperidine]-5,6-dione]",3.81 µM,3.35 µM,4.25 µM,3.53 µM,12.9 µM,3.7,18.3 µM
"O=C1C(=O)c2ccccc2C2=C1SCC1(CCN(CC3CCCCC3)CC1)O2 [Compound 136, 1′-(cyclohexylmethyl)spiro[naphtho[1,2-b][1,4]oxathiine-2,4′-piperidine]-5,6-dione]",4.34 µM,4.13 µM,4.32 µM,2.95 µM,8.7 µM,2.9,9.6 µM
"O=C1C(=O)c2ccccc2C2=C1SCC1(CCN(C(=O)Nc3ccccc3)CC1)O2 [Compound 84, 5,6-dioxo-N-phenyl-5,6-dihydro-1′H-spiro[naphtho[1,2-b][1,4]oxathiine-2,4′-piperidine]-1′-carboxamide]",6.83 µM,6.38 µM,10.3 µM,4.69 µM,19.1 µM,4.1,16.9 µM
"O=C1C(=O)c2ccccc2C2=C1SCC1(CCN(C(=O)c3ccccc3I)CC1)O2 [Compound 49, 1′-(2-iodobenzoyl)spiro[naphtho[1,2-b][1,4]oxathiine-2,4′-piperidine]-5,6-dione]",1.8 µM,2.39 µM,4.11 µM,2.87 µM,7.72 µM,2.7,5.58 µM
"CC(O)(CN1CCC2(CC1)CSC1=C(O2)c2ccccc2C(=O)C1=O)c1ccccc1 (stereo not drawn) [Compound 177, 1′-(2-hydroxy-2-phenylpropyl)spiro[naphtho[1,2-b][1,4]oxathiine-2,4′-piperidine]-5,6-dione]",8.99 µM,4.18 µM,4.55 µM,6.22 µM,20.5 µM,3.3,14.9 µM
"Cc1cc(C(=O)N2CCC3(CC2)CSC2=C(O3)c3ccccc3C(=O)C2=O)n(C)n1 [Compound 42, 1′-[(1,3-dimethyl-1H-pyrazol-5-yl)carbonyl]spiro[naphtho[1,2-b][1,4]oxathiine-2,4′-piperidine]-5,6-dione]",5.64 µM,5.12 µM,12.7 µM,8.95 µM,12.6 µM,1.4,43 µM
"O=C1C(=O)c2ccccc2C2=C1SCC1(CCN(CC(O)c3ccccc3)CC1)O2 (stereo not drawn) [Compound 167, 1′-(2-hydroxy-2-phenylethyl)spiro[naphtho[1,2-b][1,4]oxathiine-2,4′-piperidine]-5,6-dione]",1.53 µM,1.26 µM,2.76 µM,1.35 µM,3.68 µM,2.7,7.56 µM
"O=C1C(=O)c2ccccc2C2=C1SCC1(CCN(C(=O)c3cnccc3C(=O)O)CC1)O2 [Compound 237, 3-[(5,6-dioxo-5,6-dihydro-1′H-spiro[naphtho[1,2-b][1,4]oxathiine-2,4′-piperidin]-1′-yl)carbonyl]isonicotinic acid]",49.3 µM,48 µM,61.3 µM,66.1 µM,94.2 µM,1.4,> 100 µM
"Cc1ccc(CN2CCC3(CC2)CSC2=C(O3)c3ccccc3C(=O)C2=O)cc1F [Compound 146, 1′-(3-fluoro-4-methylbenzyl)spiro[naphtho[1,2-b][1,4]oxathiine-2,4′-piperidine]-5,6-dione]",12.1 µM,4.1 µM,5.77 µM,4.53 µM,26.4 µM,5.8,38.2 µM
"O=C1C(=O)c2ccccc2C2=C1SCC1(CCN(CCCOc3ccccc3)CC1)O2 [Compound 144, 1′-(3-phenoxypropyl)spiro[naphtho[1,2-b][1,4]oxathiine-2,4′-piperidine]-5,6-dione]",4.32 µM,2.82 µM,4.91 µM,2.17 µM,9.9 µM,4.6,8.19 µM
"O=C1C(=O)c2ccccc2C2=C1SCC1(CCN(S(=O)(=O)c3c(Cl)nc4sccn34)CC1)O2 [Compound 77, 1′-[(6-chloroimidazo[2,1-b][1,3]thiazol-5-yl)sulfonyl]spiro[naphtho[1,2-b][1,4]oxathiine-2,4′-piperidine]-5,6-dione]",22.9 µM,16.1 µM,49.2 µM,20.6 µM,76.4 µM,3.7,> 100 µM
"O=C1C(=O)c2ccccc2C2=C1SCC1(CCN(C(=O)C3CCC3C(=O)O)CC1)O2 (stereo not drawn) [Compound 235, 2-[(5,6-dioxo-5,6-dihydro-1′H-spiro[naphtho[1,2-b][1,4]oxathiine-2,4′-piperidin]-1′-yl)carbonyl]cyclobutanecarboxylic acid]",52.4 µM,48.5 µM,54.4 µM,69.6 µM,85.8 µM,1.2,> 100 µM
"CCc1ccc(OCC(O)CN2CCC3(CC2)CSC2=C(O3)c3ccccc3C(=O)C2=O)cc1 (stereo not drawn) [Compound 170, 1′-[3-(4-ethylphenoxy)-2-hydroxypropyl]spiro[naphtho[1,2-b][1,4]oxathiine-2,4′-piperidine]-5,6-dione]",5.31 µM,1.37 µM,1.42 µM,1.49 µM,14 µM,9.4,4.69 µM
"O=C1C(=O)c2ccccc2C2=C1SCC1(CCN(CC(O)COc3ccc(Cl)cc3)CC1)O2 (stereo not drawn) [Compound 176, 1′-[3-(4-chlorophenoxy)-2-hydroxypropyl]spiro[naphtho[1,2-b][1,4]oxathiine-2,4′-piperidine]-5,6-dione]",4.76 µM,3 µM,2.43 µM,2.4 µM,11 µM,4.6,5.14 µM
